Source: ChEMBL document CHEMBL1201862, “PubChem BioAssay data set” (2004)
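Grown in 96-well plates, cells were treated for 48 hours with each compound at five concentrations. Insufficient inhibition: endpoint recorded as highest concentration tested. GI50 is the concentration that inhibits growth by half.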 Calls of active or inactive are those of the source. No stated cut-off is given here; in the data, active = GI50 up to about 1.1 µM and inactive = higher.

Assays:
Experiment in all cases: growth of human tumour cells (NCI), 48 h
786-0 = system: 786-0
ACHN = system: ACHN
CAKI-1 = system: CAKI-1
DMS-114 = system: DMS-114
HCC 2998 = system: HCC 2998
HCT-116 = system: HCT-116
HCT-15 = system: HCT-15
HL-60 = system: HL-60
KM-20L2 = system: KM-20L2
NCI-H226 = system: NCI-H226
OVCAR-3 = system: OVCAR-3
OVCAR-4 = system: OVCAR-4
OVCAR-5 = system: OVCAR-5
SF-295 = system: SF-295
SN12C = system: SN12C
SNB-75 = system: SNB-75
SR = system: SR
UACC-62 = system: UACC-62

SMILES | GI50 (786-0) | GI50 (ACHN) | GI50 (CAKI-1) | GI50 (DMS-114) | GI50 (HCC 2998) | GI50 (HCT-116) | GI50 (HCT-15) [µM] | GI50 (HL-60) | GI50 (KM-20L2) | GI50 (NCI-H226) | GI50 (OVCAR-3) | GI50 (OVCAR-4) | GI50 (OVCAR-5) | GI50 (SF-295) | GI50 (SN12C) | GI50 (SNB-75) | GI50 (SR) | GI50 (UACC-62)
O=C1CSC(C(/N=N/c2ccccc2)=C2Nc3ccccc3N2)=N1 | 25.8 µM (inactive) | 31 µM (inactive) | 24.9 µM (inactive) | 36.1 µM (inactive) | > 100 µM (inactive) | 32.4 µM (inactive) | 54.6 | 35.9 µM (inactive) | > 100 µM (inactive) | 13.6 µM (inactive) | 27.4 µM (inactive) | > 100 µM (inactive) | > 100 µM (inactive) | 22.1 µM (inactive) | 66.8 µM (inactive) | 34.4 µM (inactive) | 12.5 µM (inactive) | 31.8 µM (inactive)
CN(C)c1ccc(-c2cc(O)c3ccccc3n2)cc1 | > 100 µM (inactive) | > 100 µM (inactive) | – | > 100 µM (inactive) | > 100 µM (inactive) | > 100 µM (inactive) | > 100 | > 100 µM (inactive) | > 100 µM (inactive) | > 100 µM (inactive) | > 100 µM (inactive) | – | – | > 100 µM (inactive) | > 100 µM (inactive) | – | > 100 µM (inactive) | –
CN1CCc2c1nc(-c1cccnc1)c1c2N(C)CC1 | > 100 µM (inactive) | > 100 µM (inactive) | > 100 µM (inactive) | > 100 µM (inactive) | > 100 µM (inactive) | > 100 µM (inactive) | > 100 | > 100 µM (inactive) | 97.1 µM (inactive) | – | 65.8 µM (inactive) | > 100 µM (inactive) | > 100 µM (inactive) | > 100 µM (inactive) | > 100 µM (inactive) | > 100 µM (inactive) | – | > 100 µM (inactive)
CC1=C(C(=O)NNS(=O)(=O)c2ccc(C)cc2)CC(C(=O)NNS(=O)(=O)c2ccc(C)cc2)=C(C)N1 | > 100 µM (inactive) | 84.9 µM (inactive) | 94.2 µM (inactive) | > 100 µM (inactive) | > 100 µM (inactive) | > 100 µM (inactive) | > 100 | 55.1 µM (inactive) | > 100 µM (inactive) | > 100 µM (inactive) | > 100 µM (inactive) | > 100 µM (inactive) | 70.1 µM (inactive) | > 100 µM (inactive) | > 100 µM (inactive) | – | 61.1 µM (inactive) | 14.3 µM (inactive)
Cc1cc(N(CCC#N)CCC#N)ccc1/N=N/c1cccc(Cl)c1 | > 100 µM (inactive) | > 100 µM (inactive) | 2.96 µM (inactive) | 31.8 µM (inactive) | – | > 100 µM (inactive) | – | 3.94 µM (inactive) | > 100 µM (inactive) | > 100 µM (inactive) | > 100 µM (inactive) | > 100 µM (inactive) | > 100 µM (inactive) | > 100 µM (inactive) | > 100 µM (inactive) | – | – | 70.8 µM (inactive)
CC(=O)C(CN(CC(C)C)CC(C)C)C(c1ccccc1)c1c(O)c2ccccc2oc1=O (stereo not given) | > 100 µM (inactive) | > 100 µM (inactive) | > 100 µM (inactive) | > 100 µM (inactive) | > 100 µM (inactive) | > 100 µM (inactive) | > 100 | > 100 µM (inactive) | > 100 µM (inactive) | > 100 µM (inactive) | > 100 µM (inactive) | > 100 µM (inactive) | > 100 µM (inactive) | > 100 µM (inactive) | > 100 µM (inactive) | > 100 µM (inactive) | – | > 100 µM (inactive)
Cc1ccc(NC(=O)C(=O)C2C(=O)N(c3ccccc3)N=C2N)cc1C (stereo not given) | > 100 µM (inactive) | > 100 µM (inactive) | > 100 µM (inactive) | > 100 µM (inactive) | > 100 µM (inactive) | > 100 µM (inactive) | > 100 | > 100 µM (inactive) | > 100 µM (inactive) | > 100 µM (inactive) | > 100 µM (inactive) | > 100 µM (inactive) | > 100 µM (inactive) | > 100 µM (inactive) | > 100 µM (inactive) | > 100 µM (inactive) | > 100 µM (inactive) | > 100 µM (inactive)
CN(C)CCN(C)C(=O)C1CCCN1C(=O)OCc1ccccc1 (stereo not given) | > 100 µM (inactive) | > 100 µM (inactive) | – | > 100 µM (inactive) | > 100 µM (inactive) | > 100 µM (inactive) | > 100 | 34.7 µM (inactive) | > 100 µM (inactive) | > 100 µM (inactive) | > 100 µM (inactive) | > 100 µM (inactive) | > 100 µM (inactive) | > 100 µM (inactive) | > 100 µM (inactive) | > 100 µM (inactive) | 38.6 µM (inactive) | > 100 µM (inactive)
O=S1(=O)C[C@H](O)[C@H](O)CS1 | > 100 µM (inactive) | > 100 µM (inactive) | > 100 µM (inactive) | > 100 µM (inactive) | > 100 µM (inactive) | > 100 µM (inactive) | – | > 100 µM (inactive) | > 100 µM (inactive) | > 100 µM (inactive) | > 100 µM (inactive) | > 100 µM (inactive) | > 100 µM (inactive) | > 100 µM (inactive) | > 100 µM (inactive) | > 100 µM (inactive) | > 100 µM (inactive) | > 100 µM (inactive)
O=C(Nc1nc2c(ncn2C2OC(CO)C(O)C2O)c(=O)[nH]1)c1ccccc1 (stereo not given) | > 100 µM (inactive) | > 100 µM (inactive) | > 100 µM (inactive) | – | – | > 100 µM (inactive) | > 100 | > 100 µM (inactive) | > 100 µM (inactive) | > 100 µM (inactive) | > 100 µM (inactive) | > 100 µM (inactive) | > 100 µM (inactive) | > 100 µM (inactive) | > 100 µM (inactive) | > 100 µM (inactive) | > 100 µM (inactive) | > 100 µM (inactive)
Cc1oc2c(C)c(O)c3c(c2c1C1(C)OCCO1)C(=O)C=C(Cl)C3=O | > 100 µM (inactive) | > 100 µM (inactive) | > 100 µM (inactive) | – | – | > 100 µM (inactive) | > 100 | > 100 µM (inactive) | > 100 µM (inactive) | > 100 µM (inactive) | > 100 µM (inactive) | > 100 µM (inactive) | > 100 µM (inactive) | > 100 µM (inactive) | > 100 µM (inactive) | – | > 100 µM (inactive) | –
O=c1c(Cc2ccccc2)c(O)cc2n1CCC2 | > 100 µM (inactive) | > 100 µM (inactive) | > 100 µM (inactive) | > 100 µM (inactive) | > 100 µM (inactive) | > 100 µM (inactive) | > 100 | – | > 100 µM (inactive) | > 100 µM (inactive) | > 100 µM (inactive) | > 100 µM (inactive) | > 100 µM (inactive) | > 100 µM (inactive) | > 100 µM (inactive) | > 100 µM (inactive) | > 100 µM (inactive) | > 100 µM (inactive)
COc1ccc(N2C(=O)C3c4[nH]c5ccccc5c4C4CC(C)CC(C)C4C3C2=O)cc1 (stereo not given) | > 100 µM (inactive) | > 100 µM (inactive) | – | > 100 µM (inactive) | > 100 µM (inactive) | > 100 µM (inactive) | > 100 | > 100 µM (inactive) | > 100 µM (inactive) | > 100 µM (inactive) | – | > 100 µM (inactive) | – | > 100 µM (inactive) | > 100 µM (inactive) | > 100 µM (inactive) | > 100 µM (inactive) | > 100 µM (inactive)
CC(C)C1=Cc2ccc3c(c2C(=O)C1=O)CCCC3(C)C [MILTIRONE] | 5.65 µM (inactive) | 5.82 µM (inactive) | 2.47 µM (inactive) | – | 18.4 µM (inactive) | 1.81 µM (inactive) | 1.99 | 2.37 µM (inactive) | 20.3 µM (inactive) | 20.5 µM (inactive) | 2.58 µM (inactive) | 1.77 µM (inactive) | 19.4 µM (inactive) | 17.2 µM (inactive) | 5.56 µM (inactive) | 15.3 µM (inactive) | 2.36 µM (inactive) | 5.66 µM (inactive)
N#CC12Cc3cc4c(cc3-c3cccc(c31)CCN2C(=O)c1ccccc1)OCO4 (stereo not given) | > 10 µM (inactive) | > 100 µM (inactive) | – | 83 µM (inactive) | > 100 µM (inactive) | > 100 µM (inactive) | – | > 100 µM (inactive) | > 100 µM (inactive) | > 100 µM (inactive) | > 100 µM (inactive) | – | > 100 µM (inactive) | > 100 µM (inactive) | > 100 µM (inactive) | 21.6 µM (inactive) | > 100 µM (inactive) | > 100 µM (inactive)
COc1ccc(C2C3=C(COC3=O)Oc3cc4c(cc32)OCO4)cc1 (stereo not given) | 27.2 µM (inactive) | 21.1 µM (inactive) | 7.53 µM (inactive) | 4.3 µM (inactive) | – | 13.2 µM (inactive) | 6.27 | 3.97 µM (inactive) | 11.9 µM (inactive) | – | 7.18 µM (inactive) | 27.3 µM (inactive) | – | 5.15 µM (inactive) | 27.9 µM (inactive) | 8.3 µM (inactive) | – | 10.6 µM (inactive)
Cc1ccccc1C1=[N+]([O-])c2ccccc2C1=O | 17.4 µM (inactive) | 16.9 µM (inactive) | – | 13.4 µM (inactive) | – | 18.5 µM (inactive) | 14.4 | 10.3 µM (inactive) | 17.9 µM (inactive) | 16.3 µM (inactive) | 12.7 µM (inactive) | – | 27.6 µM (inactive) | 23.7 µM (inactive) | 17.7 µM (inactive) | 20.2 µM (inactive) | 54.7 µM (inactive) | 20.1 µM (inactive)
